Test system: WSU-DLCL2 lymphoma cells
Protocol: The tumor cell line was routinely cultured in DMEM containing 10% FCS (Gibco) at 37° C. in a water-saturated atmosphere at 5% CO2. Passage 15 was used for transplantation in human CD16 transgenic Scid mice. […] Expression of CD20 and CD22 was confirmed on WSU-DLCL2 lymphoma cells by FACS. […] Mean fluorescence was measured using the plate protocol in the FACS CantoII (Software FACS Diva).
60 SCID FcgR3 transgenic female mice (SCID CD16 tg mice), age 7-8 weeks at start of experiment (purchased from Charles River), were maintained under specific-pathogen-free condition with daily cycles of 12 h light/12 h darkness according to committed guidelines (GV-Solas; Felasa; TierschG). […] After arrival animals were maintained for one week to get accustomed to new environment and for observation. Continuous health monitoring was carried out on regular basis.
Animals were randomized for CD16 Expression on murine NK cells with an average of 70%. Treatment started 12 days after cell transplantation. […] The CD22-ADC was given once on study day 12 at the dose of 4 mg/kg. The antibody dilutions were prepared freshly from stock before use. The study was terminated on day 273.
Animals were controlled daily for clinical symptoms and detection of adverse effects. Termination criteria for animals were visible sickness: scruffy fur, arched back, heavy breathing, impaired locomotion, HLP (hind leg paralysis). Mice were sacrificed according to the termination criteria.
Survival data were statistically analyzed by pairwise Wilcoxon and pairwise log-rank test.
The diffuse large B-cell lymphoma cell line WSU-DLCL2 was intravenously inoculated (5×10^6 cells) into the tail vein of the human CD16 transgenic Scid mice. Mice were randomized for equal CD16 expression of NK cells and treatment started at day 12 after cell transplantation. […] Animals in the control group received PBS. All animals were controlled daily for clinical symptoms and detection of adverse effects and sacrificed according to the set termination criteria. Study termination was on study day 273. Survival data were represented with the survival curve (FIG. 1) and were statistically analyzed by Pairwise Wilcoxon and Pairwise Log-Rank test (FIG. 2).

## GA101: afucosylated glycoengineered humanized B-Ly1 type II anti-CD20 IgG1 antibody
Pairwise Wilcoxon test
  Survival difference between GA101 and rituximab single agents: no significant difference
  Survival difference from the vehicle group: significantly different from the vehicle group except of GA101
WSU-DLCL2 i.v. in SCID CD16 tg mice, GA101/rituximab 30 mg/kg i.v. days 12, 19, 26, CD22-ADC 4 mg/kg i.v. once day 12, study end day 273
  Median Survival: 86.5 days
Day 273, 10 animals per group
  Animals tumor free at the end of the study: 1 animals
Surviving animals/10 per group, same dosing as the median survival study
  Overall Survival at end of experiment (day 273): 1/10
